Consider twelve compounds from PubChem BioAssay (NCI).

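Results reflect a 48-hour exposure of cells in 96-well plates to compound at five concentrations. GI50 marks 50% less growth. TGI: concentration producing complete growth inhibition.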

Test systems include K-562 leukemia; PC-3 prostate; HOP-92 NSCLC; A498 renal; OVCAR-8 ovarian; DU-145 prostate; IGROV1 ovarian; OVCAR-5 ovarian; LOX IMVI melanoma; SR leukemia.
What all share (assay): inhibition of tumour cell growth, NCI panel, 48 h

Take `CCOC(=O)/C=C/C1=C(c2cccs2)c2ccccc2CC1`: the GI50 with K-562 leukemia is 30.6 µM; in the assay on PC-3 prostate, 37.1 µM; in the assay on HOP-92 NSCLC it was 37.4 µM; in the assay on A498 renal it was 36.9 µM; in the assay on OVCAR-8 ovarian, 30.5 µM; in the assay with DU-145 prostate, 22.6 µM. Further, the GI50 in the assay with IGROV1 ovarian was 26.7 µM; in the assay with OVCAR-5 ovarian, 35.9 µM; in the assay with LOX IMVI melanoma, 15.9 µM. Besides, the TGI is > 100 µM with K-562 leukemia; > 100 µM in the assay on PC-3 prostate; > 100 µM with HOP-92 NSCLC; > 100 µM in the assay with A498 renal; > 100 µM in the assay with OVCAR-8 ovarian; 58.6 µM in the assay with DU-145 prostate. Also, the TGI in the assay on IGROV1 ovarian is 94.9 µM; with OVCAR-5 ovarian, > 100 µM; with LOX IMVI melanoma, 30 µM.

Turning to `C/C(CCc1ccccc1)=N\NC(N)=S`, the TGI in the assay with K-562 leukemia, in the assay on HOP-92 NSCLC, in the assay with A498 renal, in the assay with OVCAR-8 ovarian, in the assay with IGROV1 ovarian and in the assay with SR leukemia was > 100 µM each time. Further, the TGI with OVCAR-5 ovarian and with LOX IMVI melanoma was > 100 µM in each case.

`COc1ccc2c(c1)/C(=C\c1c(Cl)[nH]c3ccc(OC)cc13)C(=O)N2`: the GI50 in the assay with PC-3 prostate is 48.9 µM; in the assay with HOP-92 NSCLC, 61.7 µM; in the assay with OVCAR-8 ovarian, 34.1 µM; in the assay on DU-145 prostate, > 100 µM; in the assay on IGROV1 ovarian, 56.9 µM; with OVCAR-5 ovarian, 77.3 µM. The GI50 with LOX IMVI melanoma is 25.8 µM. In addition, the TGI in the assay with PC-3 prostate, in the assay on HOP-92 NSCLC, in the assay with OVCAR-8 ovarian, in the assay on DU-145 prostate, in the assay with IGROV1 ovarian and with OVCAR-5 ovarian was > 100 µM in each case. Moreover, the TGI in the assay with LOX IMVI melanoma turned out to be 54.3 µM.

As to `OCCNc1ncnc2c1ncn2Cc1cccc(COc2cccc(OCc3cccc(Cn4cnc5c(NCCO)ncnc54)c3)c2)c1`, the GI50 with K-562 leukemia was 8.01 µM; in the assay with PC-3 prostate it was 14.5 µM; in the assay with HOP-92 NSCLC it was 7.61 µM; in the assay on A498 renal, 14.9 µM; with OVCAR-8 ovarian it was 18.5 µM; in the assay on DU-145 prostate it was 16.7 µM. Besides, the GI50 was 12.9 µM in the assay on IGROV1 ovarian, 20.2 µM in the assay with OVCAR-5 ovarian and 14.5 µM in the assay on LOX IMVI melanoma. Also, the TGI in the assay with K-562 leukemia worked out at 35.8 µM; with PC-3 prostate, 30.4 µM; with HOP-92 NSCLC, 23.6 µM; in the assay on A498 renal, 28.9 µM; in the assay on OVCAR-8 ovarian it was 38.1 µM; in the assay with DU-145 prostate, 32.5 µM. Besides, the results for the TGI in the assay on IGROV1 ovarian, in the assay on OVCAR-5 ovarian and in the assay on LOX IMVI melanoma were 37.4 µM, 36.8 µM and 30.1 µM, respectively.

Regarding `C[C@]12CCCC(=O)C1(O)C[C@H](C(=O)O)CC2` (stereo partly specified), the TGI with K-562 leukemia, with HOP-92 NSCLC, in the assay on A498 renal, in the assay on OVCAR-8 ovarian, in the assay on IGROV1 ovarian and with SR leukemia was > 100 µM each time. The TGI in the assay with OVCAR-5 ovarian and in the assay with LOX IMVI melanoma was > 100 µM each time.

`C=C1C(=O)O[C@H]2[C@H]1CC/C(COC(=O)c1cc3cc(Cl)ccc3[nH]1)=C\CC[C@@]1(C)O[C@@H]21`: the GI50 in the assay on K-562 leukemia was 1.14 µM; in the assay with PC-3 prostate it was 2.42 µM; in the assay on HOP-92 NSCLC it was 1.25 µM; in the assay with A498 renal it was 2.65 µM; with OVCAR-8 ovarian, 1.34 µM; in the assay with IGROV1 ovarian, 1.38 µM. The figures for the GI50 in the assay on SR leukemia, with OVCAR-5 ovarian and in the assay on LOX IMVI melanoma were 0.776 µM, 1.53 µM and 0.813 µM, respectively. The TGI in the assay with K-562 leukemia is 4.14 µM; in the assay with PC-3 prostate, 6.58 µM; in the assay on HOP-92 NSCLC, 2.76 µM; in the assay on A498 renal it was 9.17 µM; in the assay on OVCAR-8 ovarian it was 3.32 µM; in the assay on IGROV1 ovarian, 2.91 µM. Moreover, the values for the TGI in the assay with SR leukemia, with OVCAR-5 ovarian and with LOX IMVI melanoma were 3.61 µM, 3.28 µM and 2.08 µM, respectively.

Take `COC1OC(CO)C(O)C1N` (stereo unspecified): the TGI in the assay with K-562 leukemia, in the assay on HOP-92 NSCLC, in the assay with A498 renal, in the assay with OVCAR-8 ovarian, in the assay with IGROV1 ovarian and with SR leukemia was > 100 µM each time. Further, the TGI in the assay on OVCAR-5 ovarian and in the assay with LOX IMVI melanoma was > 100 µM each time.

As to `CCOP(=O)(OCC)OC(C#N)c1ccc(-c2ccccc2)cc1` (stereo unspecified), the TGI was 40 µM in the assay on K-562 leukemia; 52.6 µM in the assay on HOP-92 NSCLC; 62.7 µM in the assay with A498 renal; 37.4 µM in the assay on OVCAR-8 ovarian; > 100 µM in the assay with IGROV1 ovarian; 59 µM with SR leukemia. Moreover, the TGI in the assay on OVCAR-5 ovarian is > 100 µM; in the assay on LOX IMVI melanoma, 29.1 µM.

As to `CN(C)CC1CCC/C1=N\O` (stereo unspecified), the TGI with K-562 leukemia, in the assay with HOP-92 NSCLC, with A498 renal, with OVCAR-8 ovarian, with IGROV1 ovarian and in the assay with SR leukemia was > 100 µM throughout. Moreover, the TGI in the assay with OVCAR-5 ovarian and in the assay on LOX IMVI melanoma was > 100 µM each time.

Turning to `CN(C)CCCNC(=O)c1ccc2c(c1)oc1cc3ccccc3c(=O)n12`, the GI50 in the assay on K-562 leukemia was 27.2 µM; in the assay on PC-3 prostate it was 31.7 µM; in the assay with HOP-92 NSCLC, > 50 µM; in the assay on OVCAR-8 ovarian, 10.1 µM; in the assay with IGROV1 ovarian it was 9.94 µM; with SR leukemia it was 10 µM. The GI50 in the assay on LOX IMVI melanoma was 9.4 µM. Moreover, the TGI is > 50 µM in the assay with K-562 leukemia; > 50 µM in the assay with PC-3 prostate; > 50 µM in the assay with HOP-92 NSCLC; 24.9 µM with OVCAR-8 ovarian; 43.5 µM with IGROV1 ovarian; 46.6 µM in the assay with SR leukemia. In addition, the TGI with LOX IMVI melanoma was found to be 17.9 µM.

`Cc1ccc(-c2cc(-c3ccco3)c(C#N)c(=O)n2C2OC(OC(=O)c3ccccc3)C(OC(=O)c3ccccc3)C2OC(=O)c2ccccc2)cc1` (stereo unspecified): the TGI is > 100 µM with K-562 leukemia; 59.4 µM with HOP-92 NSCLC; > 100 µM in the assay with A498 renal; > 100 µM in the assay on OVCAR-8 ovarian; > 100 µM in the assay with IGROV1 ovarian; > 100 µM in the assay with SR leukemia. For the same compound, the TGI in the assay on OVCAR-5 ovarian and in the assay on LOX IMVI melanoma was > 100 µM each time.

Take `C/C(=N\N(c1ccccc1)c1ccccc1)c1c(O)cc(C)oc1=O`: the TGI in the assay on K-562 leukemia, in the assay on HOP-92 NSCLC, in the assay on A498 renal, in the assay on OVCAR-8 ovarian, with SR leukemia and with LOX IMVI melanoma was > 100 µM in each case.
